The experiment relates to HepG2 cells derived from liver cancer. Description: Test 2: quantitative evaluation of autophagy activity (CYTO-ID/Hoechst 33342 fluorescence, microplate reader). Conditions: 100 μM compound 1 or compound 2, 24 hours (positive control 500 nM rapamycin, 16 hours), then 10 μM chloroquine 6 hours; 3 wells per group. It is filed as cell-based. Here is the method:
The active action of autophagy of the compound 1 or the compound 2 observed in Test 1 was quantitatively detected.
HepG2 cells derived from liver cancer in 2.5×10^4 cells were plated in a 96-well plate (manufactured by Falcon), and the culture was performed for 24 hours in DMEM containing 10% FBS under the conditions of 37° C. and a CO2 concentration of 5%. After that, the cells were cultured for 24 hours by using a medium for testing prepared in (1-1) of (1) in Test 1. Further, the culture was performed in a similar manner as in Test 1 also in the negative control and the positive control. […]
Into each well, 100 μL of an assay buffer attached to a kit (manufactured by Enzo Life Sciences, Inc.) was added, and the fluorescence intensity was measured by using a fluorescence microplate reader, SH-9000 (manufactured by CORONA ELECTRIC Co., Ltd.). The fluorescence derived from the fluorescent probe for autophagy detection was measured under the conditions of an excitation filter of 480 nm and a fluorescence filter of 530 nm. Further, the fluorescence derived from each staining reagent was measured under the conditions of an excitation filter of 340 nm and a fluorescence filter of 480 nm.
Results of the fluorescence intensity of the cells exposed to a compound 1 or a compound 2, which was measured by a fluorescence microplate reader, are shown in Table 1. […]

Structures are written as SMILES.

In the case of `CO[C@H]1C[C@@H]2CC[C@@H](C)[C@@](O)(O2)C(=O)C(=O)N2CCCC[C@H]2C(=O)O[C@H]([C@H](C)C[C@@H]2CC[C@@H](O)[C@H](OC)C2)CC(=O)[C@H](C)/C=C(\C)[C@@H](O)[C@@H](OC)C(=O)[C@H](C)C[C@H](C)/C=C/C=C/C=C/1C` [Positive control, rapamycin], the “Autophagy induction (CYTO-ID fluorescence intensity/Hoechst 33342 fluorescence intensity)” value is reported as 93.

The values are drawn from US20210121383A1, “COMPOSITION FOR ANTI-AGING” (MORINAGA MILK INDUSTRY CO., LTD., priority 2018, published 2021).
